pIC50: −log10 of the molar value. Counter-ions that a name gives are not always drawn. Like-named read-outs stand apart in the source and are kept apart here.
Columns and labels:
human hepatocytes [1] = conditions: male, 4 h
Method: (§1) Cryopreserved human hepatocytes (male) that are prepared by XenoTech, LLC (Lenexa, Kans.), are thawed on the day of use and resuspended in Waymouth's incubation media. The enzymatic activity of hepatocytes is monitored using 7-ethoxycoumarin and 7-hydroxycoumarin as substrates. […] The incubations are carried out for 4 hours with 1×10^6 viable cells/ml. […] At 0 and 4 hour, cell suspensions are extracted using two volumes of ice cold methanol. After centrifugation, the extracts are stored at −20° C. until further sample processing. The solvent in the samples are dried under a stream of nitrogen, and resuspended in methanol:water (1:1) before analysis.
(§2) The extracts of the 4 hour incubation mixture are analyzed by liquid chromatography/electrospray ionization-mass spectrometry (LC/ESI-MS) in the positive and negative ion modes to screen for possible metabolites. […] The same instrumentation and methods in HPLC Method 1 are used in HPLC Method 2 with the exception that the mobile phases and gradient are 0.4% HCOOH in H2O for mobile A and CH3OH for mobile phase B. The mass spectrometer is LCQ™ Ion Trap Mass Spectrometer and is in either the positive or negative electrospray mode with the ion spray set at 4.5 kV. The capillary temperature is 250° C., the nitrogen sheath gas flow rate is ˜80 unit, the auxiliary nitrogen gas flow rate is 20 unit, and the collision gas is helium.

human hepatocytes [2] = assay: In vitro metabolism in human hepatocytes; conditions: 100 μM, 4 hours incubation
Method: as §1, §2

CYP2C19 = CYP2C19 (Homo sapiens, UniProt P33261); assay: Inhibition of human CYP activity in microsomes: (S)-mephenytoin 4′-hydroxylation; conditions: pooled human liver microsomes, 10 to 30 min at 37° C.
Sequence of CYP2C19 (P33261 whole entry): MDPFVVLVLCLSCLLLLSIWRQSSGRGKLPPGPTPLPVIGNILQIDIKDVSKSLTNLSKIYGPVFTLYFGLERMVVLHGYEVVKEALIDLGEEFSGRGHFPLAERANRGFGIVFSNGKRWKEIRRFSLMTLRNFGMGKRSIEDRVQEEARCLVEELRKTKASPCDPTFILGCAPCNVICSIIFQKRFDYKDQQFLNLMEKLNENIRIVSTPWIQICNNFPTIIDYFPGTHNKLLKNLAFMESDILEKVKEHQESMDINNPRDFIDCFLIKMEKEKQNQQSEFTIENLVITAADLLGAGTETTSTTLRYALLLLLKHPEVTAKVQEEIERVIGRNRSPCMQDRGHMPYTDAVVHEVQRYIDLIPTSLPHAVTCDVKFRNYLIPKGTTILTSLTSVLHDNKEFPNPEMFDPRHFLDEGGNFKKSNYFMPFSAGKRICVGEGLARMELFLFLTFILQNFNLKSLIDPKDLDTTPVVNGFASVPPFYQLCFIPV

Caco-2 cells = assay: Caco-2 bi-directional permeability assay; assay type: in vitro ADME, human
Method: Caco-2 cells are obtained from American Type Culture Collection (ATCC, Manassas, Va.) and are grown to confluence for 14-21 days on 1 μm filters in 24 well plates. […] Receiver solutions consist of buffer only. Sequential samples of transported solute are taken at 20 minute intervals in duplicate over 2 hours and the concentration of the transported compound is determined by HPLC-UV/MS. Test sample concentration is determined by LC/MS. Permeability coefficients are calculated for each sampling interval, and averages from the intervals are determined. The apparent permeability coefficient Papp is calculated from the equation
[formula] where dQ/dt is the rate of permeation of drug across the cells, C0 is the original concentration in donor compartment at time zero, and A is the area of the cell monolayer. Mass balance in the system is ascertained by comparing the sum of transported solute and remaining donor solute to the starting solution concentration.

[3] = Flavin monooxygenase (FMO)-dependent lactam formation screening (pre-incubation temperature); assay type: in vitro ADME, human; conditions: for formation: area under the curve ratio of analyte to internal standard bicifadine-d5: 1 mM NADPH, mean ± SD; for formation after 37° C. pre-incubation versus 45° C. pre-incubation: 5 minute pre-incubation
Method: FMOs, but not CYP enzymes, are sensitive to elevated incubation temperature. Thus, to determine if the formation of the lactam metabolite is mediated by FMOs and/or CYPs, the effect of pre-incubation temperature on the lactam formation is conducted by XenoBiotic Laboratories, Inc. (Plainsboro, N.J.). […] The incubation of benzydamine (positive control, 200 μM) is carried out concurrently. The samples are analyzed using LC-MS/MS (see NADPH-dependent lactam formation methodology).

[4] = Human plasma protein binding (ultrafiltration); assay type: in vitro ADME
Method: Samples of test drug in triplicate are mixed and incubated in Millipore Multiscreen filter plates with Ultracel-10 regenerated cellulose membranes for 60 minutes at 37° C. Following incubation, samples undergo centrifugation for 60 minutes at 2000×g and the filtrate is collected. Percent protein bound is determined from the concentration of free compound present in the filtrate following comparison to a standard curve of test drug. […] The flow rate is 1 ml/min and the column temperature is maintained at 50° C. The solvent is a gradient of solvent A composed of 0.1% formic acid in water and solvent B composed of acetonitrile with 0.07% formic acid.

[5] = Brain and plasma levels of amitifadine and lactam metabolite Compound 2 in rat; assay type: in vivo; design: plasma level, mean±SEM: unit not given here; conditions: for plasma level, mean±SEM: amitifadine 10 mg/kg po
Method: The studies are conducted in accordance with the Institutional Animal Care and Use Committee guidelines. […] At 0.5, 1, 2, and 4 hour after dosage, animals are briefly anesthetized in a chamber containing 4% isoflurane and rapidly decapitated. Trunk blood is collected in heparinized tubes (9 units/ml whole blood), immediately chilled to 4° C., centrifuged, and the plasma is frozen at −80° C. until analyzed. Brains are quickly removed, bisected along the midline, and frozen at −80° C. until analyzed.
Plasma and brain samples are allowed to thaw on ice and are homogenized in a 20 ml glass vial in two volumes of ice cold water using a handheld homogenizer (VDI 12, VWR International). Standard curves are prepared in water, control plasma, and control brain homogenate. Equal volumes (100 μl) of plasma or brain homogenate samples, distilled water and internal standard are mixed in 1.5 ml polypropylene tubes and 300 μl of acetonitrile is added to each mixture. Samples are then mixed thoroughly by placing on a shaker at 200 RPM for 40 minutes at room temperature. The samples are then centrifuged at 10,000×g for 10 minutes at 4° C. and the supernatant (200 μl) is transferred to a tube containing 2 μl of 10% formic acid. The samples are subjected to a Zorbax SBC18 Solvent Saver Plus 3.0×150 mm 3.5-μm column on a Shimadzu Prominence LC. […] The concentration of compound in the column effluent is measured using an Applied Biosystems API-3200 triple quadrupole mass spectrometer.

[6] = MAO phenotyping with MAO inhibitors in human liver mitochondria; assay type: in vitro ADME; conditions: 1 μM parent, 30 minutes at 37° C.
Method: A study on the role of monoamine oxidases involved in the formation of the lactam metabolite is conducted by XenoBiotic Laboratories, Inc. (Plainsboro, N.J.).

[7] = NADPH-dependent lactam formation in human liver microsomes; assay type: in vitro ADME; conditions: for formation: area under the curve ratio of analyte to internal standard bicifadine-d5: 10 μM parent, 30 minutes, mean ± SD
Method: The effect of NADPH on lactam formation ((1S,5R)-5-(3,4-dichlorophenyl)-3-azabicyclo[3.1.0]hexan-2-one hydrochloride, Compound 2) is conducted by XenoBiotic Laboratories, Inc. (Plainsboro, N.J.). […] Bicifadine ((±)-1-(4-methylphenyl)-3-azabicyclo-[3.1.0]hexane HCl) (10 μM) is used as a positive control and the formation of the lactam metabolite of bicifadine (designated M12) is also monitored. Negative controls are determined by incubation of amitifadine and bicifadine in the absence of liver enzymes. The samples are analyzed using LC-MS/MS.
The system controller for the HPLC system is a Shimadzu SCL-10Avp, the pump model is a Shimadzu LC-10Avp, and the autosampler model is Shimadzu HTA. The analytical column is Phenomenex Luna C18 5 μm 50×2.0 mm which is set at room temperature and the autosampler is also at room temperature. The injection volume is 5 μl. Mobile phase A is 0.05% formic acid in water and mobile phase B is 0.05% formic acid in acetonitrile. The flow rate is 0.7 ml/minute and run time is 5 minutes. The mass spectrometer is an AB MDX Sciex API-4000 run in the turbo ion spray (ESI) positive ion detection mode and the scan mode is multiple reaction monitoring (MRM). The optimized mass spectrometry conditions are ion spray at 5000 V, curtain gas 10 units temperature 500° C., entrance potential 10 V, collision gas 6 units, and gas 1 and 2 each 50 units.

monoamine transporters = assay: Affinity for monoamine transporters; assay type: binding
CYP2B6 = molecular target: T1, CYP2B6 (Homo sapiens, UniProt P20813); assay: Inhibition of human CYP activity in microsomes: bupropion hydroxylation; conditions: pooled human liver microsomes, 10 to 30 min at 37° C.
T1 sequence (P20813 1-491): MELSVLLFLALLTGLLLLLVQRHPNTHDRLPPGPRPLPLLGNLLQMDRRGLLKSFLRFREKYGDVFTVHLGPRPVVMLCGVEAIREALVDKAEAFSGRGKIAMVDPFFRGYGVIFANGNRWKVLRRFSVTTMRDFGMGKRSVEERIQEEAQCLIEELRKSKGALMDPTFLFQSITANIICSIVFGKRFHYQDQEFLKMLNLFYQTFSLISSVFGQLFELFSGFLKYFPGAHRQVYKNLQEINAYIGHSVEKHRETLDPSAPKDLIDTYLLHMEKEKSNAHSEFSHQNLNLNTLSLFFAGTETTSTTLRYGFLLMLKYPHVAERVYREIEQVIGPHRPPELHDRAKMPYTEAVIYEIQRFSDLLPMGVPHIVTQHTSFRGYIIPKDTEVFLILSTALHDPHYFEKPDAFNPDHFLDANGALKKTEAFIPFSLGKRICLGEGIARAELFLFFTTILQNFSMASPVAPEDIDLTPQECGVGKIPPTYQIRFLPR

[8] = human, Caco-2, 2 h, 10 μM, pH 7.4
[9] = microsomes pre-incubated at 37° C. for 5 minutes
[10] = microsomes pre-incubated at 45° C. for 5 minutes
[11] = male, Sprague-Dawley, brain/plasma, po, 10 mg/kg, read-out: brain to plasma ratio

CCOc1ccc2ccc(=O)oc2c1 [7-ethoxycoumarin, reference compound]
metabolized after incubation (human hepatocytes [1]; 100 μM): 68.9%

O=c1ccc2ccc(O)cc2o1 [7-hydroxycoumarin]
metabolized after incubation (human hepatocytes [2]): 99.1%

CC[C@@]1(c2ccccc2)C(=O)NC(=O)N(Cc2ccccc2)C1=O [(R)-N-3-benzyl-Phenobarb-ital, (R)—N-3-benzylphenobarbital]
pIC50 (CYP2C19): 6.52

Clc1ccc([C@]23CNC[C@H]2C3)cc1Cl [Amitifadine, (1R,5S)-(+)-1-(3,4-dichlorophenyl)-3-azabicyclo[3.1.0]hexane hydrochloride]
parent remaining unchanged after incubation (human hepatocytes [1]; 87 μM): 82.4%
Mass balance % AP→BL (Caco-2 cells; [8]): 62%
Mass balance % BL→AP (Caco-2 cells; [8]): 88%

C[N+](C)([O-])CCCOc1nn(Cc2ccccc2)c2ccccc12 [Benzydamine N-oxide, reference compound]
formation: area under the curve ratio of analyte to internal standard bicifadine-d5 [3, 9]: 35.70 ± 0.86
formation: area under the curve ratio of analyte to internal standard bicifadine-d5 [3, 10]: 7.68 ± 1.51
formation after 37° C. pre-incubation versus 45° C. pre-incubation [3]: 4.6 fold

Cn1c(=O)c2c(ncn2C)n(C)c1=O [Caffeine]
fraction unbound at 60 min, 1 μM ([4]; 1 μM, mean and SEM of triplicate, read-out: % Bound (converted)): 0.73
fraction unbound at 60 min, 10 μM ([4]; 10 μM, mean and SEM of triplicate, read-out: % Bound (converted)): 0.641
fraction unbound at 60 min ([4]; average of 1 and 10 μM): 0.685

O=C1NC[C@]2(c3ccc(Cl)c(Cl)c3)C[C@H]12 [Compound 2, (1S,5R)-5-(3,4-dichlorophenyl)-3-azabicyclo[3.1.0]hexan-2-one hydrochloride]
plasma level, mean±SEM ([5]; 0.5 hours): 1153±610
plasma level, mean±SEM ([5]; 1 hour): 1620±303
plasma level, mean±SEM ([5]; 2 hours): 3831±1127
plasma level, mean±SEM ([5]; 4 hours): 8896±794
Kp at 0.5 h [5, 11]: 1.1
Kp at 1 h [5, 11]: 1.3
Kp at 2 h [5, 11]: 1.4
Kp at 4 h [5, 11]: 1.7
formation: area under the curve ratio of analyte to internal standard bicifadine-d5 [3, 9]: 0.05 ± 0.01
formation: area under the curve ratio of analyte to internal standard bicifadine-d5 [3, 10]: 0.06 ± 0.01
formation after 37° C. pre-incubation versus 45° C. pre-incubation [3]: did not alter
effect of MAO-A inhibitor clorgyline on lactam formation [6]: concentration-dependently decreased
effect of MAO-B inhibitor selegiline on lactam formation [6]: did not have an effect
formation: area under the curve ratio of analyte to internal standard bicifadine-d5 ([7]; 0 mM NADPH at 37° C): 0.04 ± 0.00
formation: area under the curve ratio of analyte to internal standard bicifadine-d5 ([7]; 1 mM NADPH at 37° C.): 0.08 ± 0.01
quantity formed in presence of NADPH versus absence of NADPH ([7]; 1 mM vs 0 mM NADPH): 2 fold
affinity for monoamine transporters (monoamine transporters): low affinity

CC(Nn1nnc2ccccc21)c1ccccc1 (stereo not drawn) [N-(α-methylbenzyl)-1-AB, N-(α-methylbenzyl)-1-aminobenzotriazole]
pIC50 (CYP2B6): 7.22

Lucifer yellow [reference compound]
transfer across Caco-2 monolayer (integrity) (Caco-2 cells; Caco-2): ≤ 0.05%

Reference: patent US9566264B2, “Combinations and methods” (Euthymics Bioscience, Inc., priority 2013, dated 2017)
